Data published in US10881110B2, “Herbicidal compositions comprising isoxazolo[5,4-b]pyridines” (BASF SE, priority 2014, dated 2021).

Assays:
Assay in all cases: greenhouse post-emergence herbicidal test
ERICA = format: in vivo, Conyza canadensis; conditions: Erigeron canadensis, post-emergence, 480 h, read-out: herbicidal activity against ERICA found
Description: (§1) The culture containers used were plastic pots containing medium loamy sand with approximately 4.6% of humus and 69.9% sand as substrate. The seeds of the test plants were sown separately for each species.
(§2) For the post-emergence treatment, the test plants were grown to a plant height of from 1 to 15 cm, depending on the plant habit, and only then treated with the active compounds which had been suspended or emulsified in water. To this end, the test plants were either sown directly, and grown in the same containers, or they were first grown separately as seedlings and transplanted into the test containers a few days prior to treatment.
(§3) Depending on the species, the plants were kept at 10-25° C. and 20-35° C., respectively.
(§4) The test period extended over 1 to 3 weeks. During this time, the plants were tended and their response to the individual treatments was evaluated 20 days after treatment except mentioned otherwise.
(§5) Evaluation was carried out using a scale from 0 to 100. 100 means no emergence of the plants, or complete destruction of at least the above-ground parts, and 0 means no damage or normal course of growth.
(§6) The respective stated components A and B, and, if appropriate, C, were formulated as a 10% by weight strength emulsion concentrate and, with addition of the amount of solvent system, introduced into the spray liquor used for applying the active compound. In the examples, the solvent used was water.
(§7) In the examples below, using the method of S. R. Colby (1967) “Calculating synergistic and antagonistic responses of herbicide combinations”, Weeds 15, p. 22 ff., the value E, which is expected if the activity of the individual active compounds is only additive, was calculated. E=X+Y−(X·Y/100)

MATCH = format: in vivo, Matricaria recutita; parameters: key to herbicidal activity against MATCH found: rating on a scale from 0 to 100
Description: as §1, §2, §3, §4, §5, §6, §7

POLCO = format: in vivo, Polygonum convolvulus; parameters: key to herbicidal activity against POLCO found: rating on a scale from 0 to 100; conditions: for herbicidal activity against POLCO found: 20 days after treatment
Description: as §1, §2, §3, §4, §5, §6, §7

VIOAR = format: in vivo, Viola arvensis; conditions: Viola arvensis, post-emergence, read-out: herbicidal activity against VIOAR found
Description: as §1, §2, §3, §4, §5, §6, §7

KCHSC = format: in vivo, Kochia scoparia; parameters: key to herbicidal activity against KCHSC found: rating on a scale from 0 to 100; conditions: for herbicidal activity against KCHSC found: post emergence, B.88 1 g/ha a.i.
Description: as §1, §2, §3, §4, §5, §6, §7

GERDI = format: in vivo, Geranium dissectum; parameters: key to herbicidal activity against GERDI found: rating on a scale from 0 to 100; conditions: for herbicidal activity against GERDI found: I.1 62.5 g/ha
Description: as §1, §2, §3, §4, §5, §6, §7

ECHCG = format: in vivo, Echinochloa crus-galli; parameters: key to herbicidal activity against ECHCG found / herbicidal activity against ECHCH found: scale 0 to 100
Description: as §1, §2, §3, §4, §5, §6, §7

GALAP = format: in vivo, Galium aparine; conditions: Galium aparine, post-emergence, 480 h, read-out: herbicidal activity against GALAP found
Description: as §1, §2, §3, §4, §5, §6, §7

ALOMY = format: in vivo, Alopecurus myosuroides; parameters: key to herbicidal activity against ALOMY found: rating on a scale from 0 to 100; conditions: post emergence; for herbicidal activity against ALOMY found: I.1 62.5 g/ha
Description: as §1, §2, §3, §4, §5, §6, §7

ABUTH = format: in vivo, Abutilon theophrast; parameters: key to herbicidal activity against ABUTH found: rating on a scale from 0 to 100
Description: as §1, §2, §3, §4, §5, §6, §7

PAPRH = format: in vivo, Papaver rhoeas; parameters: key: rating on a scale from 0 to 100
Description: as §1, §2, §3, §4, §5, §6, §7

IPOHE = format: in vivo, Ipomoea hederacea; conditions: Ipomoea hederacea, post-emergence, 480 h, read-out: herbicidal activity against IPOHE found
Description: as §1, §2, §3, §4, §5, §6, §7

APESV = format: in vivo, Apera spica-venti; parameters: key to herbicidal activity against APESV found: rating on a scale from 0 to 100; conditions: post emergence
Description: as §1, §2, §3, §4, §5, §6, §7

[1] = Matricaria chamomilla, post-emergence, 480 h, read-out: herbicidal activity against MATCH found
[2] = Fallopia convolvulus, post-emergence, 480 h, read-out: herbicidal activity against POLCO found
[3] = Bassia scoparia, post-emergence, 480 h, read-out: herbicidal activity against KCHSC found
[4] = Geranium dissectum, post-emergence, 480 h, read-out: herbicidal activity against GERDI found
[5] = I.1 31.25 g/ha, B.88 1 g/ha a.i.
[6] = I.1 31.25 g/ha, B.88 2 g/ha a.i.
[7] = I.1 62.5 g/ha, B.88 1 g/ha a.i.
[8] = I.1 62.5 g/ha, B.88 2 g/ha a.i.

With CS(=O)(=O)c1ccc(C(=O)C2C(=O)CCCC2=O)c(Cl)c1 [B.104, sulcotrione] the pest or weed control at 15 g/ha (ERICA) was 75%, the pest or weed control at 15 g/ha (MATCH; [1]) was 10% and the pest or weed control at 15 g/ha (POLCO; [2]) was 90%. The pest or weed control at 15 g/ha (VIOAR) was 85%, the pest or weed control at 15 g/ha (KCHSC; [3]) was 90% and the pest or weed control at 15 g/ha (GERDI; [4]) was 45%. For the same compound, the pest or weed control at 15 g/ha (ECHCG; Echinochloa crus-galli, post-emergence, 480 h, read-out: herbicidal activity against ECHCG found) was 80%.
With Nc1c([N+](=O)[O-])ccc(Oc2ccccc2)c1Cl [aclonifen] the pest or weed control at 500 g/ha (ERICA; post emergence, aclonifen 500 g/ha a.i.) was 0%, the pest or weed control at 1000 g/ha (ERICA; post emergence, aclonifen 1000 g/ha a.i.) was 0% and the pest or weed control at 250 g/ha (MATCH; Matricaria chamomilla, post-emergence, 480 h, post emergence, aclonifen 250 g/ha a.i., read-out: herbicidal activity against MATCH found) was 0%. The pest or weed control at 500 g/ha (MATCH; Matricaria chamomilla, post-emergence, 480 h, post emergence, aclonifen 500 g/ha a.i., read-out: herbicidal activity against MATCH found) was 0%, the pest or weed control at 1000 g/ha (MATCH; Matricaria chamomilla, post-emergence, 480 h, post emergence, aclonifen 1000 g/ha a.i., read-out: herbicidal activity against MATCH found) was 0% and the pest or weed control at 250 g/ha (POLCO; Fallopia convolvulus, post-emergence, 480 h, post emergence, aclonifen 250 g/ha a.i., read-out: herbicidal activity against POLCO found) was 85%. For the same compound, the pest or weed control at 500 g/ha (POLCO; Fallopia convolvulus, post-emergence, 480 h, post emergence, aclonifen 500 g/ha a.i., read-out: herbicidal activity against POLCO found) was 95%, the pest or weed control at 1000 g/ha (POLCO; Fallopia convolvulus, post-emergence, 480 h, post emergence, aclonifen 1000 g/ha a.i., read-out: herbicidal activity against POLCO found) was 85% and the pest or weed control at 250 g/ha (GERDI; Geranium dissectum, post-emergence, 480 h, post emergence, aclonifen 250 g/ha a.i., read-out: herbicidal activity against GERDI found) was 30%. The pest or weed control at 500 g/ha (GERDI; Geranium dissectum, post-emergence, 480 h, post emergence, aclonifen 500 g/ha a.i., read-out: herbicidal activity against GERDI found) was 70%, the pest or weed control at 250 g/ha (ECHCG; Echinochloa crus-galli, post-emergence, 480 h, post emergence, aclonifen 250 g/ha a.i., read-out: herbicidal activity against ECHCG found) was 50% and the pest or weed control at 500 g/ha (ECHCG; Echinochloa crus-galli, post-emergence, 480 h, post emergence, aclonifen 500 g/ha a.i., read-out: herbicidal activity against ECHCG found) was 80%. It also gave a pest or weed control at 250 g/ha (GALAP; post emergence, aclonifen 250 g/ha a.i.) of 80%, a pest or weed control at 250 g/ha (ALOMY; Alopecurus myosuroides, post-emergence, 480 h, aclonifen 250 g/ha a.i., read-out: herbicidal activity against ALOMY found) of 30% and a pest or weed control at 500 g/ha (ALOMY; Alopecurus myosuroides, post-emergence, 480 h, aclonifen 500 g/ha a.i., read-out: herbicidal activity against ALOMY found) of 60%. For the same compound, the pest or weed control at 1000 g/ha (ALOMY; Alopecurus myosuroides, post-emergence, 480 h, aclonifen 1000 g/ha a.i., read-out: herbicidal activity against ALOMY found) was 70%.
Compound CP(=O)(O)CCC(N)C(=O)O (stereo not shown) [B.120, glufosinate-ammonium] has a pest or weed control at 62.5 g/ha (MATCH; [1]) of 55%, a pest or weed control at 125 g/ha (POLCO; [2]) of 65% and a pest or weed control at 125 g/ha (VIOAR) of 15%. The pest or weed control at 125 g/ha (ABUTH; Abutilon theophrasti, post-emergence, 480 h, read-out: herbicidal activity against ABUTH found) was 70%, the “herbicidal activity against PAPRH found” value (PAPRH; 62.5 g/ha a.i.) was 30 and the pest or weed control at 62.5 g/ha (IPOHE) was 80%. For the same compound, the pest or weed control at 62.5 g/ha (KCHSC; [3]) was 45%, the pest or weed control at 62.5 g/ha (GERDI; [4]) was 40% and the pest or weed control at 125 g/ha (GERDI; [4]) was 90%. It also gave a pest or weed control at 125 g/ha (GALAP) of 80%.
With C#CCN1C(=O)COc2cc(F)c(N3C(=O)C4=C(CCCC4)C3=O)cc21 [B.88, flumioxazin] the “herbicidal activity against ABUTH found” value (ABUTH; post emergence, I.1 31.25 g/ha, B.88 1 g/ha a.i.) was 90, the “herbicidal activity against PAPRH found” value (PAPRH; I.1 15.62 g/ha, B.88 2 g/ha a.i.) was 75 and the “herbicidal activity against PAPRH found” value (PAPRH; [5]) was 25. The “herbicidal activity against PAPRH found” value (PAPRH; [6]) was 75, the “herbicidal activity against PAPRH found” value (PAPRH; [7]) was 25 and the “herbicidal activity against PAPRH found” value (PAPRH; [8]) was 75. For the same compound, the “herbicidal activity against KCHSC found” value (KCHSC; I.1 15.62 g/ha) was 85, the “herbicidal activity against KCHSC found” value (KCHSC; I.1 31.25 g/ha) was 85 and the “herbicidal activity against KCHSC found” value (KCHSC; I.1 62.5 g/ha) was 85. The “herbicidal activity against GERDI found” value (GERDI; post emergence, B.88 1 g/ha a.i.) was 70, the “herbicidal activity against GERDI found” value (GERDI; post emergence, B.88 2 g/ha a.i.) was 70 and the “herbicidal activity against APESV found” value (APESV; I.1 15.62 g/ha, B.88 1 g/ha a.i.) was 25. The “herbicidal activity against APESV found” value (APESV; [5]) was 25, the “herbicidal activity against APESV found” value (APESV; [6]) was 65 and the “herbicidal activity against APESV found” value (APESV; [7]) was 25. For the same compound, the “herbicidal activity against APESV found” value (APESV; [8]) was 65, the “herbicidal activity against ALOMY found” value (ALOMY; B.88 1 g/ha a.i.) was 0 and the “herbicidal activity against ALOMY found” value (ALOMY; B.88 2 g/ha a.i.) was 20.
CSc1nnc(C(C)(C)C)c(=O)n1N [B.79, metribuzin] was tested, and the “herbicidal activity against MATCH found” value (MATCH; post emergence, a.i. g/ha: I.1 20.8, B.79 25, 20 days after treatment) was 65%, the “herbicidal activity against POLCO found” value (POLCO; post emergence, a.i. g/ha: I.1 20.8, B.79 25) was 20% and the “herbicidal activity against POLCO found” value (POLCO; post emergence, a.i. g/ha: I.1 62.5, B.79 25) was 20%. The “herbicidal activity against ECHCG found” value (ECHCG; post emergence, a.i. g/ha: I.1 62.5, B.79 25, 20 days after treatment) was 20%.
